# Experimental data from EP0531958A1, “6-Aminoquinolones, their synthesis and their use as antibacterial agents” (MEDIOLANUM FARMACEUTICI S.P.A., priority 1991, dated 1993).
# Like-named read-outs stand apart in the source and are kept apart here.
# How the values were obtained:
# Format in all cases: cell-based
# Gram + = assay: MIC test, average over the 5 gram-positive test germs; conditions: 24 h
# Method: (§1) As to the antibacterial activity, there was determined the Least (Minimum) Inhibiting Concentration (MIC), by working according to the following operative conditions.
# (§2) There were used suspensions of test germs (5 gram-positive and 15 gram-negative) having a known titre, kept freezed at -80°C and diluted, at the time of use, in peptonized water up to a concentration of 1-2.10⁷ cfu/ml.
# (§3) A few mg of the products, according to the invention were weighed sufficient for preparing parent solutions in DMSO + NaOH (1N) containing 2560 µg/ml (64µg/ml/dish). From the thus prepared parent solutions there were prepared 12 serial dilutions (1:2) down to the concentration of 1.25 µg/ml.
# (§4) 0.5 ml of the different dilutions of each product were distributed on dishes containing 19.5 ml of agarized medium (TSA), maintained in a fluid state at the temperature of 50°C. After slight stirring, the dishes were made to solidify and dry under hood (laminar flow).
# (§5) The MIC tests (Least or "Minimum" Inhibiting Concentration) were performed by using a Steers multiwell inoculator having 36 wells, each containing 200 µl of bacterial suspension.
# (§6) After inoculation, the dishes were placed into a thermostat and checked after 24 h of incubation at 35°C.
# (§7) The MIC is defined as the lowermost product concentration (µg/ml) inhibiting the visible growth of the microorganisms.
# [1] = test system: Acinebacter calcoloaceticus OSMPV 1130; assay: MIC test, agar dilution with Steers multiwell inoculator; conditions: TSA dishes, 24 h at 35°C, read-out: Minimum Inhibiting Concentration
# Method: as §1, §2, §3, §4, §5, §6, §7
# [2] = test system: Enterobacter cloacae OMNF 1153; assay: as above; conditions: OMNF1153, TSA dishes, 24 h at 35°C, read-out: Minimum Inhibiting Concentration
# Method: as §1, §2, §3, §4, §5, §6, §7
# [3] = test system: Enterobacter cloacae OMNF 1174; assay: as above; conditions: OMNF1174, TSA dishes, 24 h at 35°C, read-out: Minimum Inhibiting Concentration
# Method: as §1, §2, §3, §4, §5, §6, §7
# Escherichia coli 120 = assay: as above; conditions: TSA dishes, 24 h at 35°C, read-out: Minimum Inhibiting Concentration
# Method: as §1, §2, §3, §4, §5, §6, §7
# [4] = test system: Escherichia coli ATCC 8739; assay: as above; conditions: ATCC8739, TSA dishes, 24 h at 35°C, read-out: Minimum Inhibiting Concentration
# Method: as §1, §2, §3, §4, §5, §6, §7
# Escherichia coli CNUR 1 = assay: as above; conditions: CNUR1, TSA dishes, 24 h at 35°C, read-out: Minimum Inhibiting Concentration
# Method: as §1, §2, §3, §4, §5, §6, §7
# Escherichia coli CNUR 8 = assay: as above; conditions: CNUR8, TSA dishes, 24 h at 35°C, read-out: Minimum Inhibiting Concentration
# Method: as §1, §2, §3, §4, §5, §6, §7
# Escherichia coli ISF 432 = assay: as above; conditions: ISF432, TSA dishes, 24 h at 35°C, read-out: Minimum Inhibiting Concentration
# Method: as §1, §2, §3, §4, §5, §6, §7
# [5] = test system: Klebsiella pneumoniae ATCC 10031; assay: as above; conditions: ATCC10031, TSA dishes, 24 h at 35°C, read-out: Minimum Inhibiting Concentration
# Method: as §1, §2, §3, §4, §5, §6, §7
# Proteus vulgaris CNUR 6 = assay: as above; conditions: CNUR6, TSA dishes, 24 h at 35°C, read-out: Minimum Inhibiting Concentration
# Method: as §1, §2, §3, §4, §5, §6, §7
# [6] = test system: Providencia stuardii CNUR 5; assay: as above; conditions: CNUR5, TSA dishes, 24 h at 35°C, read-out: Minimum Inhibiting Concentration
# Method: as §1, §2, §3, §4, §5, §6, §7
# [7] = test system: Pseudomonas aeruginosa ATCC 9027; assay: as above; conditions: ATCC9027, TSA dishes, 24 h at 35°C, read-out: Minimum Inhibiting Concentration
# Method: as §1, §2, §3, §4, §5, §6, §7
# [8] = test system: Pseudomonas aeruginosa CNUR 2; assay: as above; conditions: CNUR2, TSA dishes, 24 h at 35°C, read-out: Minimum Inhibiting Concentration
# Method: as §1, §2, §3, §4, §5, §6, §7
# [9] = test system: Pseudomonas aeruginosa CNUR 4; assay: as above; conditions: CNUR4, TSA dishes, 24 h at 35°C, read-out: Minimum Inhibiting Concentration
# Method: as §1, §2, §3, §4, §5, §6, §7
# Shighella enteritidis = assay: as above; conditions: TSA dishes, 24 h at 35°C, read-out: Minimum Inhibiting Concentration
# Method: as §1, §2, §3, §4, §5, §6, §7
# [10] = test system: Staphylococcus aureus ATCC 6538; assay: as above; conditions: ATCC6538, TSA dishes, 24 h at 35°C, read-out: Minimum Inhibiting Concentration
# Method: as §1, §2, §3, §4, §5, §6, §7
# [11] = test system: Staphylococcus aureus MPR 5; assay: as above; conditions: MPR5, TSA dishes, 24 h at 35°C, read-out: Minimum Inhibiting Concentration
# Method: as §1, §2, §3, §4, §5, §6, §7
# [12] = test system: Staphylococcus epidermidis CPHL A2; assay: as above; conditions: CPHLA2, TSA dishes, 24 h at 35°C, read-out: Minimum Inhibiting Concentration
# Method: as §1, §2, §3, §4, §5, §6, §7
# [13] = test system: Staphylococcus epidermidis HCF Berset C.; assay: as above; conditions: TSA dishes, 24 h at 35°C, read-out: Minimum Inhibiting Concentration
# Method: as §1, §2, §3, §4, §5, §6, §7
# [14] = test system: Streptococcus facealis LEP Br.; assay: as above; conditions: TSA dishes, 24 h at 35°C, read-out: Minimum Inhibiting Concentration
# Method: as §1, §2, §3, §4, §5, §6, §7
# Gram - = assay: MIC test, average over the 15 gram-negative test germs; conditions: 24 h
# Method: as §1, §2, §3, §4, §5, §6, §7
# [15] = geometrical average of the MIC over the 5 Gram + strains, read-out: Geometrical Average
# [16] = geometrical average of the MIC over the 15 Gram - strains, read-out: Geometrical Average
# [17] = mean log of the MIC over the 15 Gram - strains, read-out: Log (converted)
SMILES,MIC (Gram +; read-out: Log (converted)),MIC [1],MIC [2],MIC [3],MIC (Escherichia coli 120),MIC [4],MIC (Escherichia coli CNUR 1),MIC (Escherichia coli CNUR 8),MIC (Escherichia coli ISF 432),MIC [5],MIC (Proteus vulgaris CNUR 6),MIC [6],MIC [7],MIC [8],MIC [9],MIC (Shighella enteritidis),MIC [10],MIC [11],MIC [12],MIC [13],also measured
Nc1cc2c(=O)c(C(=O)O)cn(C3CC3)c2cc1N1CCNCC1 [Compound 9],42.2 µg/mL,16 µg/mL,0.5 µg/mL,0.25 µg/mL,0.25 µg/mL,0.25 µg/mL,0.25 µg/mL,0.25 µg/mL,0.03 µg/mL,0.25 µg/mL,32 µg/mL,32 µg/mL,2 µg/mL,8 µg/mL,64 µg/mL,0.5 µg/mL,64 µg/mL,64 µg/mL,16 µg/mL,16 µg/mL,MIC (Gram +; [15]): 42.2 µg/mL; MIC [14]: 128 µg/mL; MIC (Gram -; [16]): 1.26 µg/mL; MIC (Gram -; [17]): 1.26 µg/mL
Nc1cc2c(=O)c(C(=O)O)cn(C3CC3)c2cc1N1CCCC1 [Compound 10],128 µg/mL,128 µg/mL,16 µg/mL,8 µg/mL,4 µg/mL,0.25 µg/mL,16 µg/mL,8 µg/mL,0.25 µg/mL,0.25 µg/mL,128 µg/mL,128 µg/mL,128 µg/mL,128 µg/mL,128 µg/mL,16 µg/mL,128 µg/mL,128 µg/mL,128 µg/mL,128 µg/mL,MIC [14]: 128 µg/mL; MIC (Gram -; [16]): 13.3 µg/mL; MIC (Gram -; [17]): 13.3 µg/mL
CC1CN(c2cc3c(cc2N)c(=O)c(C(=O)O)cn3C2CC2)CC(C)N1 (centres unmarked) [Compound 11],6.97 µg/mL,8 µg/mL,0.5 µg/mL,0.5 µg/mL,0.12 µg/mL,0.03 µg/mL,0.25 µg/mL,0.25 µg/mL,0.03 µg/mL,0.03 µg/mL,64 µg/mL,2 µg/mL,2 µg/mL,8 µg/mL,64 µg/mL,0.25 µg/mL,8 µg/mL,8 µg/mL,2 µg/mL,4 µg/mL,MIC (Gram +; [15]): 6.96 µg/mL; MIC [14]: 32 µg/mL; MIC (Gram -; [16]): 0.75 µg/mL; MIC (Gram -; [17]): 0.75 µg/mL
CC1CN(c2cc3c(cc2N)c(=O)c(C(=O)O)cn3C2CC2)CCN1 (centres unmarked) [Compound 14],10.5 µg/mL,16 µg/mL,0.5 µg/mL,0.25 µg/mL,0.06 µg/mL,0.03 µg/mL,0.12 µg/mL,0.12 µg/mL,0.03 µg/mL,0.03 µg/mL,32 µg/mL,16 µg/mL,2 µg/mL,4 µg/mL,64 µg/mL,0.25 µg/mL,16 µg/mL,16 µg/mL,4 µg/mL,4 µg/mL,MIC (Gram +; [15]): 10.6 µg/mL; MIC [14]: 32 µg/mL; MIC (Gram -; [16]): 0.68 µg/mL; MIC (Gram -; [17]): 0.679 µg/mL
Nc1cc2c(=O)c(C(=O)O)cn(C3CC3)c2cc1N1CCSCC1 [Compound 15],1.32 µg/mL,1 µg/mL,0.5 µg/mL,0.5 µg/mL,0.12 µg/mL,0.03 µg/mL,0.5 µg/mL,0.12 µg/mL,0.03 µg/mL,0.03 µg/mL,128 µg/mL,1 µg/mL,2 µg/mL,16 µg/mL,128 µg/mL,0.5 µg/mL,0.5 µg/mL,0.5 µg/mL,1 µg/mL,2 µg/mL,MIC (Gram +; [15]): 1.32 µg/mL; MIC [14]: 8 µg/mL; MIC (Gram -; [16]): 0.748 µg/mL; MIC (Gram -; [17]): 0.748 µg/mL
